Measurements taken from US9321804B2, “Synthesis and use of anti-tumor drug LQC-Y” (Beijing University of Chinese Medicine, priority 2011, dated 2016).
Where a name gives a salt, the structure may show the parent alone.

Tests used:
[1] = test system: Human hepatoma carcinoma cells Bel7402; experiment: Proliferation of human hepatoma carcinoma cells Bel7402 by MTT; type: cell-based; conditions: for 24 h inhibition ratio (%): Bel7402 cells; for inhibiting effect on the proliferation of Bel7402 cells: cultured in vitro, 10-40 μg/ml
Protocol: Human hepatoma carcinoma cells Bel7402 were recovered and subcultured using a culture flask. The preparation of the experiment was started when the cell growth entered into the exponential growth phase. The cells were then digested using pancreatic enzyme which had been filtrated at an increased pressure to prepare the cell suspension. After that the suspension was dyed for 3 min with 0.4% trypan blue. Then a blood cell counting plate was used to count the living cells which were not dyed and the dead cells which were dyed to blue. The number of the living cells identified by trypan blue was more than 98%.
Three kinds of cells which were in the exponential growth phase were inoculated at the density of 1×10^4/ml, to a 96-well plate, 200 μl for each well. Then the plate was put in a 37° C. 5% CO2 incubation box to be cultured for 24 h. The cultivation liquid was sucked away and 200 μl LQC-Y solutions of different concentrations were added thereinto (prepared with DMEM cultivation liquid containing 4% calf serum and the final concentration of which respectively were 10 μg, 20 μg, 40 μg), 4 parallel wells for each concentration. Supernatant cultivation liquid 100 μl was sucked away carefully from each well after being cultured for 24 h and 48 h, and MTS 20 μl was added into each well and homogeneously mixed. The resultant liquid was cultured in a 37° C. 5% CO2 incubation box for a further 1 h. An enzyme-labeling quantitative instrument was used to measure the absorbance at 492 nm. The experiment was repeated for 3 times and then an inhibition ratio was calculated.
The inhibition ratio of cell proliferation (%)=[(average OD value of control group-average OD value of the administration group)/average OD value of control group]×100%

[2] = test system: Human hepatoma carcinoma cells Bel7402; experiment: as above; type: cell-based; conditions: 40 μg/ml
S180 sarcoma of mice [3] = experiment: Tumor inhibiting effect of LQC-Y2 in tumor bearing S180 mice
Protocol: The S180 mice that had been inoculated for 7 days were killed by breaking the neck thereof and ascites was taken from the mice respectively in an aseptic environment and the ascites was washed using RPMI1640 culture medium for 2 times and then made into a […] /ml cell suspension using aseptic physiological saline. Then the obtained S180 cell suspension was inoculated hypodermically at the right axillary of mice, 0.1 ml for each mouse and 50 mice total, to establish the solid tumor model.
(§1) 60 mice were divided into 2 categories, including 6 groups, according to the random number table method, i.e. normal control group of the first category, and S180 solid tumor groups of the second category which included positive (cyclophosphamide) control group, negative control group, small dosage group, middle dosage group and large dosage group, 10 mice for each group. The experiment was repeated for 3 times.
LQC-Y2 was made into an emulsion using corn oil. The dosage of the small dosage group was 75 mg/Kg, the dosage of the middle dosage group was 150 mg/Kg, and the dosage of the large dosage group was 300 mg/kg. Equal volume of corn oil was injected into the mice of the negative control group, cyclophosphamide injection 0.02 g/(Kg.d) was injected into the mice of the positive control group. These medicines were administrated 0.1 ml per mouse by intraperitoneal injection every the other day continuously for 15 days. During this period, the common behavior, hair and excrement and so on were observed daily. The mice that had been inoculated with S180 by hypodermic inoculation were killed by breaking the necks thereof after 24 h after the last administration and the tumor, liver and spleen were then taken.
The weight of the solid tumor group mice were measured after all the administration was over and then the mice were killed. The spleens and the livers thereof were weighed by an electronic balance. The spleen index was calculated as the spleen weight of a mouse (mg)/the body weight of a mouse(g) and the liver index was calculated as the liver weight of a mouse[…]/the body weight of a mouse(g).
The solid tumor negative control group mice were weighed on the next day after the administration was finished (the eyeballs of the mice were removed to bleed and the serum was collected for subsequent experimental use). Then the mice were killed by breaking the neck thereof. The tumor tissues were taken out and weighed by an electronic balance to calculate the tumor-inhibiting ratio.
(§2) All the data were statistically analyzed using SPSS11.0 software pack. The comparison of the enumeration data was carried out with X^2 test. P<0.05 had statistical significance.

S180 sarcoma of mice [4] = experiment: Tumor inhibiting effect of LQC-Y3 on tumor bearing S180 mice
Protocol: The S180 mice that had been inoculated for 7 days were killed by breaking the neck thereof and ascites was taken from the mice respectively in an aseptic environment and the ascites was washed using RPMI1640 culture medium for 2 times and then made into a 2×10^7/ml cell suspension using aseptic physiological saline. Then the obtained S180 cell suspension was inoculated hypodermically at the right axillary of mice, 0.1 ml for each mouse and 50 mice total, to establish the solid tumor model.
as §1
LQC-Y3 was prepared using 0.5% CMC-Na. The dosage of the small dosage group was 75 mg/Kg, the dosage of the middle dosage group was 150 mg/Kg, and the dosage of the large dosage group was 300 mg/kg. Equal volume of 0.5% CMC-Na was injected into the mice of the negative control group and cyclophosphamide injection 0.02 g/(Kg.d) was injected into the mice of the positive control group. These medicines were administrated 0.1 ml per mouse by intraperitoneal injection every the other day continuously for 15 days. During this period, the common behavior, hair, excrement and so on were observed daily. The mice that had been inoculated with S180 by hypodermic inoculation were killed by breaking the neck thereof after 24 h after the last administration and the tumor, liver and spleen were then taken.
The weight of the solid tumor group mice were measured after all the administration was finished and then the mice were killed. The spleens and the livers thereof were weighed by an electronic balance. The spleen index was calculated as the spleen weight of a mouse (mg)/the body weight of a mouse (g) and the liver index was calculated as the liver weight of a mouse […]/the body weight of a mouse (g).
The solid tumor negative control group mice were weighed on the next day after the administration was finished (the eyeballs of the mice were removed to bleed and the serum was collected for subsequent experimental use). Then the mice were killed by breaking the neck thereof. The tumor tissues were taken out and weighed by an electronic balance to calculate the tumor inhibiting ratio.
as §2

[5] = S180 Balb/C mice, cyclophosphamide 0.02 g/(Kg.d) i.p., 15 days
[6] = S180 mice, cyclophosphamide 0.02 g/(Kg.d) i.p., 15 days

Compound	24 h inhibition ratio (%) ([1]; 10 μg/ml)	24 h inhibition ratio (%) ([1]; 20 μg/ml)	inhibiting effect on the proliferation of Bel7402 cells [1]	24 h inhibition ratio (%) [2] [%]	liver index compared with the negative control group (S180 sarcoma of mice [3]; LQC-Y2 dosage groups, cyclophosphamide 0.02 g/(Kg.d))	Tumor inhibiting ratio (%) (S180 sarcoma of mice [3]; [5])	Tumor weight (g) (S180 sarcoma of mice [3]; [5])	Weight growth (g) (S180 sarcoma of mice [3]; [5])	Spleen index (100 g/g) (S180 sarcoma of mice [3]; [6])	liver index compared with the negative control group (S180 sarcoma of mice [4]; LQC-Y3 dosage groups, cyclophosphamide 0.02 g/(Kg.d))	Tumor inhibiting ratio (%) (S180 sarcoma of mice [4]; [5])	Tumor weight (g) (S180 sarcoma of mice [4]; [5])	Weight growth (g) (S180 sarcoma of mice [4]; [5])	Liver index (100 g/g) (S180 sarcoma of mice [4]; [6])
Cc1nc(C)c(COC(=O)c2cc(O)c3c(c2)C(=O)c2cccc(O)c2C3=O)nc1C [LQC-Y6, (3,5,6-trimethyl pyrazine-2-yl)methyl-4,5-dihydroxy-9,10-dioxo-9,10-dihydroanthracene-2-carboxylate]	26.75	67.23	inhibiting effect	81.21										
Cc1nc(C)c(COC(=O)CCC(C)C2CCC3C4C(O)CC5CC(O)CCC5(C)C4CC(O)C23C)nc1C (stereo not shown) [LQC-Y1, (3,5,6-trimethyl pyrazine-2-yl)methyl-4-(3,7,12-trihydroxy-10,13-dimethylhexadecahydro-1H-cyclopenta[a]phenanthren-17-yl)pentanoate]	67.39	76.66	evident inhibiting effect	86.44										
Cc1nc(C)c(COC(=O)C2(C)CCC3(C)CCC4(C)C(=CC(=O)C5C6(C)CCC(O)C(C)(C)C6CCC54C)C3C2)nc1C (stereo not shown) [LQC-Y4, (3,5,6-trimethyl pyrazine-2-yl)methyl-10-hydroxy-2,4a,6a,6b,9,9,12a-heptamethyl-13-oxo-1,2,3,4,4a,5,6,6a,6b,7,8,8a,9,10,11,12,12a,12b,13,14b-eicosahydropicene-2-carboxylate]	39.31	44.58	evident inhibiting effect	94.42										
Cc1nc(C)c(COC(=O)C2=CC(O)C(O)C(O)C2)nc1C (stereo not shown) [LQC-Y10, (3,5,6-trimethyl pyrazine-2-yl)methyl 3,4,5-trihydroxycyclohexyl-1-ene formate]		7.82	inhibiting effect	5.69										
O=P1(N(CCCl)CCCl)NCCCO1 (stereo not shown) [Cyclophosphamide, reference compound]					smaller than those of the negative control group	88.55	0.15 ± 0.13^(4) g	8.98 ± 3.80^(1)(3) g	5.29 ± 0.47^(1)(4) 100 g/g	smaller than those of the negative control group	73.40	0.25 ± 0.16^(4) g	6.90 ± 2.04^(1)(3) g	5.19 ± 0.33 100 g/g
